Experiments:
VCAM gene expression = assay: Rabbit atherogenic diet model, VCAM mRNA in aorta bow (RNase protection)
[1] = tested on: E-selectin (ELAM) gene expression; assay: Rabbit atherogenic diet model, E-selectin mRNA in aorta bow (RNase protection)
IL-6 promoter = IL-6 promoter reporter in U-2 OS with ERα and NF-κB proteins / c/EBPβ; assay type: cell-based, human
Experimental: To determine the role of functional ERα/c-Rel interactions in repression of IL-6 production by estrogens, we analysed the effect of various combinations of ERα and NF-κB proteins on IL-6 production using a reporter construct containing the promoter of the IL-6 gene.
For transient transfections, cells were seeded in 6-well plates (2.10^5 cells/well). After two or three days the cells were transfected with reporter, expression vectors and β-galactosidase control vector. Two different experimental settings were used. For testing transrepression of IL-1β induced promoter activity, cells were transfected with 1 μg reporter construct, 1 μg expression vector (containing either ERα, ERβ or GR), and 0.25 μg of β-galactosidase control plasmid. For testing transrepression in combination with c-Rel or ReLA overexpression, cells were transfected with 1 μg reporter construct, 1 μg expression vector (containing either ERα, ERβ or GR) and 0.1 or 1.0 μg expression vector containing c-Rel or RelA and 0.25 μg of β-galactosidase control vector. Equivalent amounts of DNA were obtained by adding the appropriate expression vector that lacks an insert. Transient transfection was performed using lipofectin reagent (Life Technologies). […] The transfected cells were incubated overnight with test compounds prior to cell lysis. Measurement of luciferase and P-galactosidase activity were performed using respectively the luciferase assay system (Promega) and Galacto-light plus (Tropix) according to the manufacturers' protocols and measured on the Victor 1420 multilabel counter, Wallac.

cRel = assay: Yeast two-hybrid cRel, no partner; assay type: cell-based
From the text: A yeast two-hybrid assay is a cellular method to quantify the degree of interaction between two proteins. This is done by producing constructs that encode for fusion proteins of the two proteins to be studied, in this case ER and c-Rel, with either the transactivating or DNA binding part of the Gal4. The transactivating and DNA binding part of gal are separately not capable of inducing reporter activity of a gal4-responsive β-galactosidase reporter construct. Due to the interaction of the two proteins the transactivating and DNA binding parts of Gal4 will come in close proximity and as a result induction of a gal-responsive reporter will occur. More specificcally, in this embodiment of the invention the estrogen receptor is fused to the DNA binding domain (DBD) of Gal4, whereas c-Rel is fused to the activation domain (AD) of Gal4. The ER/Gal4-DBD fusion protein will bind to Gal4 response elements that are upstream of the reporter gene β-galactosidase in the yeast strain. Interaction between ER and c-Rel is compound dependent, therefore increasing concentrations of compound in the in vitro system will increase the number of ER and cRel molecules that interact, that can be measured as an increase of β-galactosidase reporter activity until saturation levels are reached. The amount of β-galactosidase reporter activity therefore is a measure for the degree of interaction between estrogen receptor and c-Rel.
Table 5. […] In this assay format, ERα (or ERβ) was fused to the DNA binding domain of GAL4 whereas c-Rel (or RelA) was fused to the activation domain of GAL4. Interaction between ER and NF-κB yields a transcriptionally active complex, that induces the LacZ reporter gene which results in quantifiable β-galactosidase activity. n.d. means: not determined.
pKCRE-ERα, pKCRE-ERβ and pNGV1-GR contain the human wild-type estrogen receptor α (ERα), ERβ or GR respectively under control of the SV40 promoter. The pCMV4-c-Rel expression vector was produced by cloning of the coding region of c-Rel into the pCMV4 vector (Andersson et al., 1989). pGL3-ELAM, pGL3-VCAM and pGL3-ICAM have been constructed based on PCR using the sequences as outlined in appendix 1. The luciferase reporter plasmid 3*NF-κB-TK was constructed by inserting three repeats of the NF-κB binding site from the ICAM promoter (van de Stolpe et al.; J. Biol Chem. 269: 6185-6192. 1994) in front of the herpes simplex virus thymidine kinase (HSV-TK) promoter. The TK promoter was cloned into the Bgl II-site of pGL3-basic (Promega). The triple repeat of NF-κB binding sites was constructed by annealing the oligonucleotide primers 5′-[…]-3′ and 5′-[…]-3′ followed by PRC amplification and subcloning in the pCR™2.1 vector. The insert was excised using HindIII, blunted with Klenow DNA polymerase and ligated into the SmaI site of pGL3-tk-luc. 4xERE-TATA Luc (plasmid nr. 460) contains four repeats of an estrogen responsive element followed by a TATA box and a luciferase gene. The pSV-β-Galactosidase (pSVβ) control vector (Promega) served as a positive control vector for monitoring transfection efficiencies of mammalian cells. The SV40 early promoter and enhancer drive transcription of the LacZ gene which encodes the β-Galactosidase enzyme. The yeast 2-hybrid constructs pGAD424-ERα, pGAD424-ERαdAB and pGAD424-ERβ were constructed by cloning respectively the human ERα, the ERα without the AB domain and the human ERβ cDNA in pGAD424. pGAD424-ERα LBD was constructed by cloning the LBD of ERα, obtained by PCR, in the EcoRI and SalI sites of pGAD424 vector. pGBT9-c-Rel was constructed by cloning the c-Rel fragment, obtained by PCR on pCMV4-c-Rel in the EcoRI and BamHI sites of pGBT9. The p65/RelA cDNA was obtained by PCR on the pCMV4-p65.

[2] = diet 2 weeks, 4 hours after 3 μg/kg s.c.
[3] = diet 2 weeks, 12 hours after 3 μg/kg s.c.
[4] = diet 4 weeks, 12 hours after 3 μg/kg s.c.
[5] = diet 8 weeks, 4 hours after 3 μg/kg s.c.
[6] = diet 18 weeks, 4 hours after 3 μg/kg s.c.
[7] = diet 18 weeks, 12 hours after 3 μg/kg s.c.

In the case of `C[C@]12CC[C@@H]3c4ccc(O)cc4CC[C@H]3[C@@H]1CC[C@@H]2O` [Org E2, 17β-estradiol], the “VCAM mRNA level (RNase protection, divided by GAPDH signal)” value (VCAM gene expression; [2]) is reported as 0.004949, the “VCAM mRNA level (RNase protection, divided by GAPDH signal)” value (VCAM gene expression; [3]) is reported as 0.01033 and the “VCAM mRNA level (RNase protection, divided by GAPDH signal)” value (VCAM gene expression; diet 4 weeks, 4 hours after 3 μg/kg s.c.) is reported as 0.005097. The “VCAM mRNA level (RNase protection, divided by GAPDH signal)” value (VCAM gene expression; [4]) was 0.006225, the “VCAM mRNA level (RNase protection, divided by GAPDH signal)” value (VCAM gene expression; [5]) was 0.007292 and the “VCAM mRNA level (RNase protection, divided by GAPDH signal)” value (VCAM gene expression; diet 8 weeks, 12 hours after 3 μg/kg s.c.) was 0.009832. For the same compound, the “VCAM mRNA level (RNase protection, divided by GAPDH signal)” value (VCAM gene expression; [6]) was 0.0345, the “VCAM mRNA level (RNase protection, divided by GAPDH signal)” value (VCAM gene expression; [7]) was 0.02017 and the “ELAM mRNA level (RNase protection, divided by GAPDH signal)” value [1, 2] was 0. For the same compound, the “ELAM mRNA level (RNase protection, divided by GAPDH signal)” value [1, 3] was 0.0003897, the “ELAM mRNA level (RNase protection, divided by GAPDH signal)” value [1, 4] was 0 and the “ELAM mRNA level (RNase protection, divided by GAPDH signal)” value [1, 5] was 0.0006813. For the same compound, the “ELAM mRNA level (RNase protection, divided by GAPDH signal)” value [1, 6] was 0.002788, the “ELAM mRNA level (RNase protection, divided by GAPDH signal)” value [1, 7] was 0.0008307 and the “luciferase activity, IL-6 promoter reporter” value (from here on “luciferase activity”) (IL-6 promoter; ERα + C/EBPβ) was 2585. The “luciferase activity” value (IL-6 promoter; ERα + RelA) was 19401, the “luciferase activity” value (IL-6 promoter; ERα + RelA + c/EBPβ) was 92837 and the “luciferase activity” value (IL-6 promoter; ERα + RelA + p50) was 8232. The “luciferase activity” value (IL-6 promoter; ERα + c/EBPβ + p50) was 1724, the “luciferase activity” value (IL-6 promoter; ERα + cRel) was 1807 and the “luciferase activity” value (IL-6 promoter; ERα + cRel + RelA) was 23381. The “luciferase activity” value (IL-6 promoter; ERα + cRel + c/EBPβ) was 6459, the “luciferase activity” value (IL-6 promoter; ERα + cRel + p50) was 1814 and the “luciferase activity” value (IL-6 promoter; ERα + p50) was 1447. For the same compound, the “luciferase activity” value (IL-6 promoter; ERα, no NF-κB protein) was 1310, the β-galactosidase activity (cRel; E2 0.0003 nM) was 1251 and the β-galactosidase activity (cRel; E2 0.003 nM) was 1135. It also gave a β-galactosidase activity (cRel; E2 0.01 nM) of 1093, a β-galactosidase activity (cRel; E2 0.03 nM) of 1202 and a β-galactosidase activity (cRel; E2 0.1 nM) of 1204. The β-galactosidase activity (cRel; E2 0.3 nM) was 1202, the β-galactosidase activity (cRel; E2 1 nM) was 1145 and the β-galactosidase activity (cRel; E2 3 nM) was 1246. The β-galactosidase activity (cRel; E2 10 nM) was 1146, the β-galactosidase activity (cRel; E2 30 nM) was 1411 and the β-galactosidase activity (cRel; E2 100 nM) was 1261.

— patent US20060051295A1, “Estrogen receptor interaction with a transcription factor” (priority 2002, published 2006)
